Measurements published in US12171766B2, “Methods of treating patients suffering from brain injury and methods of increasing the value of the extended Glasgow Outcome Scale of patients suffering from brain injury” (VERINOS OPERATIONS GMBH, priority 2021, dated 2024).

Assay: NOSTRA phase III trial: exposure control (pharmacokinetics), samples after end of infusion and 12 hours after end of infusion
Type: in vivo, human
Details: TBI patients
Experimental: An exposure control was performed with samples collected after end of infusion and 12 hours after end of infusion. Due to the high sensibility of Ronopterin to oxidation, no utilizable values could be obtained for Ronopterin and, therefore, the first metabolite, 4-amino-dihydrobiopterin, was used as a surrogate. The mean absolute concentration for the first metabolite of Ronopterin was 1071 ng/mL at the end of the infusion and 476 ng/mL 12 hours later (56% elimination). The mean absolute value for the second Ronopterin metabolite was 52 ng/mL at the end of the infusion and 37 ng/mL 12 hours after end of infusion.

[1] = Ronopterin 17 mg/kg infused for 48 hours

SMILES: C[C@H](O)[C@H](O)C1=Nc2c(N)nc(N)nc2NC1 [4-amino-dihydrobiopterin]
- elimination within 12 hours after end of infusion: 56%
- mean absolute concentration 12 hours after end of infusion [1]: 476 ng/mL
- mean absolute concentration at the end of the infusion [1]: 1071 ng/mL
